One experiment deals with T1, human PDHK2 (12-407) (Homo sapiens, UniProt Q15119).
T1 construct: The human PDHK2 (12-407) was produced in E. coli; His-tag (cleaved yes); made in house; host or cells: E. coli
The experiment is described as follows: Isothermal titration calorimetry (ITC) binding. The conditions noted are these: 30° C., pH 7.5. Summed up: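 Untagged PDHK2 (12-407) from E. coli at 50 μM titrated into 5 μM compound at 30° C in pH 7.5 HEPES/KCl/MgCl2/phosphate buffer, ≤1% DMSO. One-site fit gave KA, ΔH^obs and N after heat-of-dilution correction; protein concentration referenced to a standard inhibitor and compound concentration adjusted to 1:1 stoichiometry.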

For the next experiment, the system named is PDH-Elalpha (pSer300). The experiment in a line: Cellular immunofluorescence assay in HEK293T cells. Type of experiment: cell-based. The conditions noted are these: Homo sapiens, HEK-293T, 5 hours incubation, anti-PDH-E1alpha pSer300 immunofluorescence, read-out: IC50 (cell data). In a few lines:
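HEK293T cells were exposed to compound for 5 hours, then fixed, permeabilised and immunostained for PDH-Elalpha pSer300 with Hoechst counterstain, read by laser scanning cytometry. Percent effect was normalized to a pharmacological inhibitor control and fitted to dose-response curves.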

The target in a further experiment is T2, PDHK2 (Homo sapiens, UniProt Q15119).
T2 construct: purchased Carna Bioscience
The experiment in a line: Biochemical activity testing of PDHK2: PDC inactivation assay. The conditions noted are these: human rec PDHK2, PDC from porcine heart, ATP 5 μM; read-out: IC50 PDHK2 (enzyme assay). In a few lines: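 Human recombinant PDHK2 (137 nM final) preincubated 30 min at RT with porcine heart PDC (20 mU/ml) and compound in pH 7.0 phosphate buffer, then phosphorylated with 5 μM ATP for 30 min at 37 °C. Residual PDC activity read as NADH fluorescence increase (Ex 340/Em 450) over 45 min; inhibitor-free reaction as full value, 3 mM DCA as zero, IC50 derived.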

Each structure is given as a SMILES string.

In turn, `C[C@@](O)(C(=O)N1CCC(n2cnnc2-c2ccccc2F)CC1)C(F)(F)F` [Compound A55, (R)-3,3,3-Trifluoro-1-{4-[3-(2-fluoro-phenyl)-[1,2,4]triazol-4-yl]-piperidin-1-yl}-2-hydroxy-2-methyl-propan-1-one] came in with a Kd at human PDHK2 (12-407) of 300 to 3000 nM. Also, the IC50 in the experiment on PDH-Elalpha (pSer300) was 3000 to 50000 nM; at PDHK2, 300 to 3000 nM.

On human PDHK2 (12-407), `COc1ccc(-n2nncc2C2CCN(C(=O)[C@@](C)(O)C(F)(F)F)CC2)cc1` [Compound A57, (R)-3,3,3-Trifluoro-2-hydroxy-1-{4-[3-(4-methoxy-phenyl)-3H-[1,2,3]triazol-4-yl]-piperidin-1-yl}-2-methyl-propan-1-one] registered a Kd of 300 to 3000 nM. Besides, the IC50 in the experiment with PDH-Elalpha (pSer300) lay within 3000 to 50000 nM; on PDHK2, 300 to 3000 nM.

`C[C@@](O)(C(=O)N1CCC(n2ccnc2-c2ccccc2)CC1)C(F)(F)F` [Compound A61, (R)-3,3,3-Trifluoro-2-hydroxy-2-methyl-1-[4-(2-phenyl-imidazol-1-yl)-piperidin-1-yl]-propan-1-one] came in with a Kd on human PDHK2 (12-407) of less than 300 nM. Further, the values for the IC50 in the experiment on PDH-Elalpha (pSer300) and at PDHK2 were 3000 to 50000 nM and less than 300 nM, respectively.

On to `C[C@@](O)(C(=O)N1CCC(n2ccnc2-c2ccc(Cl)cc2)CC1)C(F)(F)F` [Compound A62, (R)-1-{4-[2-(4-Chloro-phenyl)-imidazol-1-yl]-piperidin-1-yl}-3,3,3-trifluoro-2-hydroxy-2-methyl-propan-1-one], for which the equilibrium dissociation constant (Kd) on human PDHK2 (12-407) was less than 300 nM. For the same molecule, the IC50 in the experiment on PDH-Elalpha (pSer300) is 300 to 3000 nM; at PDHK2 it was less than 300 nM.

On to `C[C@@](O)(C(=O)N1CCC(n2cncc2-c2ccccc2)CC1)C(F)(F)F` [Compound A63, (2R)-3,3,3-trifluoro-2-hydroxy-2-methyl-1-[4-(5-phenylimidazol-1-yl)-1-piperidyl]propan-1-one], for which the Kd at human PDHK2 (12-407) is less than 300 nM. The concentration for half-maximal inhibition (IC50) in the experiment on PDH-Elalpha (pSer300) was in the range of 3000 to 50000 nM; at PDHK2 it was 300 to 3000 nM.

Molecule `C[C@@](O)(C(=O)N1CCC(n2cncc2-c2ccc(Cl)cc2)CC1)C(F)(F)F` [Compound A64, (2R)-1-[4-[5-(4-chlorophenyl)imidazol-1-yl]-1-piperidyl]-3,3,3-trifluoro-2-hydroxy-2-methyl-propan-1-one] showed a dissociation constant (Kd) on human PDHK2 (12-407) of less than 300 nM. The figures for the IC50 with PDH-Elalpha (pSer300) and on PDHK2 were 300 to 3000 nM and less than 300 nM, respectively.

On to `C[C@@](O)(C(=O)N1CCC(c2cncn2-c2ccccc2)CC1)C(F)(F)F` [Compound A65, (R)-3,3,3-Trifluoro-2-hydroxy-2-methyl-1-[4-(3-phenyl-3H-imidazol-4-yl)piperidin-1-yl]-propan-1-one], for which the Kd on human PDHK2 (12-407) is less than 300 nM. For the same molecule, the IC50 in the experiment with PDH-Elalpha (pSer300) and on PDHK2 was 300 to 3000 nM in each case.

With `C[C@@](O)(C(=O)N1CCC(c2ccnn2CC(F)(F)F)CC1)C(F)(F)F` [Compound A77, (R)-3,3,3-Trifluoro-2-hydroxy-2-methyl-1-{4-[2-(2,2,2-trifluoro-ethyl)-2H-pyrazol-3-yl]-piperidin-1-yl}-propan-1-one], the dissociation constant (Kd) on human PDHK2 (12-407) lay in the range of 300 to 3000 nM. For the same molecule, the IC50 in the experiment with PDH-Elalpha (pSer300) and at PDHK2 was 3000 to 50000 nM in each case.

`COCCn1nccc1C1CCN(C(=O)[C@@](C)(O)C(F)(F)F)CC1` [Compound A78, (R)-3,3,3-Trifluoro-2-hydroxy-1-[4-[2-(2-methoxyethyl)-2H-pyrazol-3-yl]-1-piperidyl]-2-methyl-propan-1-one] showed a Kd on human PDHK2 (12-407) of less than 300 nM. Further, the IC50 with PDH-Elalpha (pSer300) fell in the range of 3000 to 50000 nM; on PDHK2, 300 to 3000 nM.

`C[C@@](O)(C(=O)N1CCC(c2ccnn2-c2ccc(C(F)(F)F)nc2)CC1)C(F)(F)F` [Compound A80, (R)-3,3,3-Trifluoro-2-hydroxy-2-methyl-1-[4-[2-[6-(trifluoromethyl)-3-pyridyl]-2H-pyrazol-3-yl]-1-piperidyl]propan-1-one] returned a Kd at human PDHK2 (12-407) of less than 300 nM. Besides, the values for the IC50 with PDH-Elalpha (pSer300) and on PDHK2 were 3000 to 50000 nM and 300 to 3000 nM, respectively.

At human PDHK2 (12-407), `C[C@@](O)(C(=O)N1CCC(c2ccnn2-c2ncc(F)cc2F)CC1)C(F)(F)F` [Compound A82, (R)-1-[4-[2-(3,5-Difluoro-2-pyridyl)-2H-pyrazol-3-yl]-1-piperidyl]-3,3,3-trifluoro-2-hydroxy-2-methyl-propan-1-one] yielded a Kd of less than 300 nM. The IC50 in the experiment on PDH-Elalpha (pSer300) was 300 to 3000 nM; on PDHK2 it was less than 300 nM.

`Cc1ccc(-n2nccc2C2CCN(C(=O)[C@@](C)(O)C(F)(F)F)CC2)nc1` [Compound A83, (R)-3,3,3-Trifluoro-2-hydroxy-2-methyl-1-{4-[2-(5-methyl-pyridin-2-yl)-2H-pyrazol-3-yl]-piperidin-1-yl}-propan-1-one] gave a Kd at human PDHK2 (12-407) of less than 300 nM. The concentration for half-maximal inhibition (IC50) with PDH-Elalpha (pSer300) and on PDHK2 was 300 to 3000 nM each time.

`Cn1cc(-n2nccc2C2CCN(C(=O)[C@@](C)(O)C(F)(F)F)CC2)cn1` [Compound A85, (R)-3,3,3-Trifluoro-2-hydroxy-2-methyl-1-[4-[2-(1-methylpyrazol-4-yl)-2H-pyrazol-3-yl]-1-piperidyl]propan-1-one] yielded a Kd on human PDHK2 (12-407) of less than 300 nM. For the same molecule, the IC50 in the experiment with PDH-Elalpha (pSer300) lay within 3000 to 50000 nM; on PDHK2, 300 to 3000 nM.

In the case of `Cc1csc(-n2nccc2C2CCN(C(=O)[C@@](C)(O)C(F)(F)F)CC2)n1` [Compound A86, (R)-3,3,3-Trifluoro-2-hydroxy-2-methyl-1-[4-[2-(4-methylthiazol-2-yl)-2H-pyrazol-3-yl]-1-piperidyl]propan-1-one], the Kd at human PDHK2 (12-407) is less than 300 nM. Also, the concentration for half-maximal inhibition (IC50) lay within 3000 to 50000 nM in the experiment on PDH-Elalpha (pSer300) and 300 to 3000 nM on PDHK2.

`C[C@@](O)(C(=O)N1CCC(c2ccnn2-c2ccc(C(F)(F)F)cc2F)CC1)C(F)(F)F` [Compound A88, (R)-3,3,3-Trifluoro-1-[4-[2-[2-fluoro-4-(trifluoromethyl)phenyl]-2H-pyrazol-3-yl]-1-piperidyl]-2-hydroxy-2-methyl-propan-1-one] gave a Kd on human PDHK2 (12-407) of less than 300 nM. Further, the IC50 with PDH-Elalpha (pSer300) and at PDHK2 was 300 to 3000 nM throughout.

As for `C[C@@](O)(C(=O)N1CCC(c2ccnn2-c2ccc(C#N)cc2F)CC1)C(F)(F)F` [Compound A91, 3-Fluoro-4-[5-[1-[(R)-3,3,3-trifuoro-2-hydroxy-2-methyl-propanoyl]-4-piperidyl]-2H-pyrazol-1-yl]benzonitrile], the equilibrium dissociation constant (Kd) at human PDHK2 (12-407) was less than 300 nM. Further, the figures for the IC50 in the experiment on PDH-Elalpha (pSer300) and at PDHK2 were 3000 to 50000 nM and 300 to 3000 nM, respectively.

On to `CC(C)(O)c1ccc(-n2nccc2C2CCN(C(=O)[C@@](C)(O)C(F)(F)F)CC2)c(F)c1` [Compound A92, (R)-3,3,3-Trifluoro-1-[4-[2-[2-fluoro-4-(1-hydroxy-1-methyl-ethyl)phenyl]-2H-pyrazol-3-yl]-1-piperidyl]-2-hydroxy-2-methyl-propan-1-one], for which the Kd at human PDHK2 (12-407) was less than 300 nM. Further, the IC50 in the experiment with PDH-Elalpha (pSer300) and on PDHK2 was 300 to 3000 nM each time.

In the case of `C[C@@](O)(C(=O)N1CCC(c2ccnn2[C@H]2CC[C@H](O)CC2)CC1)C(F)(F)F` [Compound A94, (R)-3,3,3-Trifluoro-2-hydroxy-1-[4-[2-(4-hydroxycyclohexyl)-2H-pyrazol-3-yl]-1-piperidyl]-2-methyl-propan-1-one], the Kd on human PDHK2 (12-407) was less than 300 nM. The IC50 in the experiment with PDH-Elalpha (pSer300) was 3000 to 50000 nM; on PDHK2, 300 to 3000 nM.

Regarding `C[C@@](O)(C(=O)N1CCC(c2ccnn2-c2ccc(OC(F)(F)F)cc2)CC1)C(F)(F)F` [Compound A95, (R)-3,3,3-Trifluoro-2-hydroxy-2-methyl-1-[4-[2-[4-(trifluoromethoxy)-phenyl]-2H-pyrazol-3-yl]-1-piperidyl]propan-1-one], the Kd on human PDHK2 (12-407) is less than 300 nM. Moreover, the IC50 with PDH-Elalpha (pSer300) was 300 to 3000 nM; on PDHK2, less than 300 nM.

For the molecule `C[C@@](O)(C(=O)N1CCC(c2ccnn2-c2ccc(OC(F)F)cc2)CC1)C(F)(F)F` [Compound A96, (R)-1-[4-[2-[4-(Difluoromethoxy)phenyl]-2H-pyrazol-3-yl]-1-piperidyl]-3,3,3-trifluoro-2-hydroxy-2-methyl-propan-1-one], the Kd on human PDHK2 (12-407) was less than 300 nM. Further, the IC50 with PDH-Elalpha (pSer300) and on PDHK2 was 300 to 3000 nM each time.

As to `Cc1cc(C2CCN(C(=O)[C@@](C)(O)C(F)(F)F)CC2)n(-c2ccc(F)cc2F)n1` [Compound A97, (R)-1-{4-[2-(2,4-Difluoro-phenyl)-5-methyl-2H-pyrazol-3-yl]-piperidin-1-yl}-3,3,3-trifluoro-2-hydroxy-2-methyl-propan-1-one], the Kd at human PDHK2 (12-407) was less than 300 nM. Moreover, the IC50 with PDH-Elalpha (pSer300) is 300 to 3000 nM; on PDHK2, less than 300 nM.

Molecule `Cc1cc(C2CCN(C(=O)[C@@](C)(O)C(F)(F)F)CC2)n(-c2ccccc2)n1` [Compound A98, (R)-3,3,3-Trifluoro-2-hydroxy-2-methyl-1-[4-(5-methyl-2-phenyl-2H-pyrazol-3-yl)-piperidin-1-yl]-propan-1-one] returned a Kd at human PDHK2 (12-407) of less than 300 nM. In addition, the half-maximal inhibitory concentration (IC50) in the experiment with PDH-Elalpha (pSer300) is 300 to 3000 nM; at PDHK2, less than 300 nM.

`C[C@@](O)(C(=O)N1CCC(c2ccnn2-c2ccc(Cl)c(F)c2)CC1)C(F)(F)F` [Compound A100, (R)-1-{4-[2-(4-Chloro-3-fluoro-phenyl)-2H-pyrazol-3-yl]-piperidin-1-yl}-3,3,3-trifluoro-2-hydroxy-2-methyl-propan-1-one] returned a Kd at human PDHK2 (12-407) of less than 300 nM. For the same molecule, the IC50 with PDH-Elalpha (pSer300) and at PDHK2 was 300 to 3000 nM each time.

These data come from patent US9751861B2, “N1-(3,3,3-trifluoro-2-hydroxo-2-methylpropionyl)-piperidine derivatives as inhibitors of pyruvate dehydrogenase kinase” (MERCK PATENT GMBH, priority 2013, dated 2017).
